Reference: patent publication US12264173B2 (GILEAD SCIENCES, INC., priority 2020, dated 2025)
Read-outs that look alike come from different tables or passages of the source.

How the values were obtained:
Type in all cases: cell-based
RSV strain A2 = experiment: microbe, parasite or virus in culture; settings: read-out: RSV HEp-2 EC50
Procedure: Antiviral activity against RSV is determined using an infectious cytopathic cell protection assay in HEp-2 cells. In this assay, compounds inhibiting viral infection and/or replication produce a cytoprotective effect against the virus-induced cell killing that can be quantified using a cell viability reagent. The techniques used here are novel adaptations of methods described in published literature (Chapman et al., Antimicrob Agents Chemother. 2007, 51(9):3346-53.).
HEp-2 cells are obtained from ATCC (Manassas, VI) and maintained in MEM media supplemented with 10% fetal bovine serum and penicillin/streptomycin. Cells are passaged twice a week and kept at subconfluent stage. Commercial stock of RSV strain A2 (Advanced Biotechnologies, Columbia, MD) is titered before compound testing to determine the appropriate dilution of the virus stock that generates desirable cytopathic effect in HEp-2 cells.
For antiviral tests, HEp-2 cells are grown in large cell culture flasks to near confluency but not fully so. The compounds to be tested are prediluted in DMSO in 384-well compound dilution plates, either in an 8 or 40 sample per plate standardized dose response format. 3-fold serial dilution increments of each test compound are prepared in the plates and test samples are transferred via acoustic transfer apparatus (Echo, Labcyte) at 100 nL per well into cell culture assay 384-well plates. Each compound dilution is transferred in single or quadruplicate samples into dry assay plates, which are stored until assay is ready to go. The positive and negative controls are laid out in opposite on ends of the plate in vertical blocks (1 column).
Subsequently, an infectious mixture is prepared using an appropriate dilution of virus stock previously determined by titration with cells at a density of 50,000/mL and 20 µL/well is added to test plates w/compounds via automation (uFlow, Biotek). Each plate includes negative and positive controls (16 replicates each) to create 0% and 100% virus inhibition standards, respectively. Following the infection with RSV, testing plates are incubated for 4 days in a 37° C. cell culture incubator. After the incubation, a cell viability reagent, Cell TiterGlo (Promega, Madison, WI) is added to the assay plates, which are incubated briefly, and a luminescent readout is measured (Envision, Perkin Elmer) in all the assay plates. The RSV-induced cytopathic effect, percentage inhibition, is determined from the levels of remaining cell viability. […] Various potent anti-RSV tool compounds are used as positive controls for antiviral activity.

RSV A2 = experiment: RSV NHBE EC50 (RSV A2 antiviral assay in NHBE cells); settings: read-out: RSV NHBE EC50
Procedure: Normal human bronchial epithelial (NHBE) cells were purchased from Lonza (Walkersville, MD, Cat #CC-2540) and cultured in Bronchial Epithelial Growth Media (BEGM) (Lonza, Walkersville, MD, Cat #CC-3170). The cells were passaged 1-2 times per week to maintain <80% confluency. The NHBE cells were discarded after 6 passages in culture.
To conduct the RSV A2 antiviral assay, NHBE cells were plated in 96-well plates at a density of 7,500 cells per well in BEGM and allowed to attach overnight at 37° C. Following attachment, 100 μL of cell culture media was removed and 3-fold serially diluted compound was added using a Hewlett-Packard D300 Digital Dispenser. The final concentration of DMSO was normalized to 0.05%. Following compound addition, the NHBE cells were infected by the addition of 100 μL of RSV A2 at a titer of 1×10^4.5 tissue culture infectious doses/mL in BEGM and then incubated at 37° C. for 4 days. The NHBE cells were then allowed to equilibrate to 25° C. and cell viability was determined by removing 100 μL of culture medium and adding 100 μL of Cell-Titer Glo viability reagent. The mixtures were incubated for 10 minutes at 25° C., and the luminescence signal was quantified on an Envision luminescence plate reader.

HRV16 = HRV16 HeLa EC50 (cytopathic effect in H1-HeLa cells); settings: read-out: HRV16 HeLa EC50
Procedure: H1-HeLa cells, cultured in complete DMEM medium containing 10% heat-inactivated FBS and 1% Penicillin/Streptomycin, were seeded in 96 well plates at 3000 cells/well one day prior to compound dosing and infection. The antiviral activity of each compound was measured in triplicate. Compounds were added directly to the cell cultures in serial 3-fold dilutions using the HP300 digital dispenser (Hewlett Packard, Palo Alto, CA) immediately prior to infection. The plates were transferred to BSL-2 containment and the appropriate dilution of virus stock, previously determined by titration and prepared in cell culture media, was added to test plates containing cells and serially diluted compounds. Each plate included 6 wells of infected untreated cells and 6 wells of uninfected cells that served as 0% and 100% virus inhibition control, respectively. Following the infection, test plates were incubated for 96 h in a tissue culture incubator set to 33° C./5% CO2. Following incubation, the H1-HeLa cells were removed from incubation and allowed to equilibrate to 25° C. Cell viability was determined by removing 100 μL of culture medium and adding 100 μL of Cell-Titer Glo viability reagent. The mixtures were incubated on a shaker for 10 minutes at 25° C., and the luminescence signal was quantified on an Envision luminescence plate reader.

[1] = human respiratory syncytial virus, HEp-2, 96 h, Table 3, HEp-2 cells, RSV A2, 4 days
[2] = human respiratory syncytial virus, NHBE, 96 h, Table 3, NHBE cells, RSV A2, 4 days
[3] = 96 h, Table 3, H1-HeLa cells, 96 h
[4] = Table 3, HEp-2 cells, RSV A2, 4 days
[5] = Table 3, NHBE cells, RSV A2, 4 days
[6] = human respiratory syncytial virus, HEp-2, Table 5 comparative activity, 2',3'-OH vs -OC(O)iPr
[7] = human respiratory syncytial virus, NHBE, Table 5 comparative activity, 2',3'-OH vs -OC(O)iPr
[8] = HeLa, Table 5 comparative activity, 2',3'-OH vs -OC(O)iPr

| Structure (SMILES) | EC50 (RSV strain A2; [1]) | EC50 (RSV A2; [2]) | EC50 (HRV16; [3]) | EC50 (RSV strain A2; [4]) | EC50 (RSV A2; [5]) | EC50 (HRV16; Table 3, H1-HeLa cells, 96 h) | EC50 (RSV strain A2; [6]) | EC50 (RSV A2; [7]) | EC50 (HRV16; [8]) |
| --- | --- | --- | --- | --- | --- | --- | --- | --- | --- |
| CC(C)C(=O)O[C@H]1[C@H](c2ccc3c(N)ncnn23)O[C@](C#N)(COP(=O)(N[C@@H](C)C(=O)OCc2ccccc2)Oc2ccccc2)[C@H]1OC(=O)C(C)C (stereo partly drawn) [Example 236, (2R,3S,4S,5S)-5-(4-aminopyrrolo[2,1-f][1,2,4]triazin-7-yl)-2-((((((S)-1-(benzyloxy)-1-oxopropan-2-yl)amino)(phenoxy)phosphoryl)oxy)methyl)-2-cyanotetrahydrofuran-3,4-diyl bis(2-methylpropanoate)] | 49 nM | 24 nM | 136 nM |  |  |  |  |  |  |
| COC(=O)[C@H](C)N[P@](=O)(OC[C@@]1(C#N)O[C@@H](c2ccc3c(NC(=O)C4CCN(C)CC4)ncnn23)[C@H](OC(=O)C2CCN(C)CC2)[C@@H]1OC(=O)C1CCN(C)CC1)Oc1ccccc1 [Example 220, (2R,3S,4S,5S)-2-cyano-2-((((S)-(((S)-1-methoxy-1-oxopropan-2-yl)amino)(phenoxy)phosphoryl)oxy)methyl)-5-(4-(1-methylpiperidine-4-carboxamido)pyrrolo[2,1-f][1,2,4]triazin-7-yl)tetrahydrofuran-3,4-diyl bis(1-methylpiperidine-4-carboxylate)] | 167 nM | 4860 nM | 13500 nM |  |  |  |  |  |  |
| CC(C)C(=O)O[C@H]1[C@H](c2ccc3c(N)ncnn23)O[C@](C#N)(COP(=O)(N[C@@H](C)C(=O)O[C@H]2CCOC2)Oc2ccccc2)[C@H]1OC(=O)C(C)C (single isomer, unassigned) [Example 241] |  |  |  | 25 nM | 13 nM | 131 nM |  |  |  |
| CC(C)C(=O)O[C@H]1[C@H](c2ccc3c(N)ncnn23)O[C@](C#N)(COP(=O)(N[C@@H](C)C(=O)O[C@@H]2CCN(C)C2)Oc2ccccc2)[C@H]1OC(=O)C(C)C (stereo partly drawn) [Example 232, (2R,3S,4S,5S)-5-(4-aminopyrrolo[2,1-f][1,2,4]triazin-7-yl)-2-cyano-2-((((((S)-1-(((R)-1-methylpyrrolidin-3-yl)oxy)-1-oxopropan-2-yl)amino)(phenoxy)phosphoryl)oxy)methyl)tetrahydrofuran-3,4-diyl bis(2-methylpropanoate)] | 95 nM | 53 nM | 880 nM |  |  |  |  |  |  |
| CC(C)C(=O)O[C@H]1[C@H](c2ccc3c(N)ncnn23)O[C@](C#N)(COP(=O)(N[C@@H](C)C(=O)OC2CCN(C)CC2)Oc2ccccc2)[C@H]1OC(=O)C(C)C (stereo partly drawn) [Example 162, (2R,3S,4S,5S)-5-(4-aminopyrrolo[2,1-f][1,2,4]triazin-7-yl)-2-cyano-2-((((((S)-1-((1-methylpiperidin-4-yl)oxy)-1-oxopropan-2-yl)amino)(phenoxy)phosphoryl)oxy)methyl)tetrahydrofuran-3,4-diyl bis(2-methylpropanoate)] | 179 nM | 28 nM | 1620 nM |  |  |  | 179 nM | 28 nM | 1620 nM |
| COCCCOC(=O)[C@H](C)NP(=O)(OC[C@@]1(C#N)O[C@@H](c2ccc3c(N)ncnn23)[C@H](OC(=O)C(C)C)[C@@H]1OC(=O)C(C)C)Oc1ccccc1 (stereo partly drawn) [Example 222, (2R,3S,4S,5S)-5-(4-Aminopyrrolo[2,1-f][1,2,4]triazin-7-yl)-2-cyano-2-((((((S)-1-(3-methoxypropoxy)-1-oxopropan-2-yl)amino)(phenoxy)phosphoryl)oxy)methyl) tetrahydrofuran-3,4-diyl bis(2-methylpropanoate)] | 27 nM | 25 nM | 146 nM |  |  |  |  |  |  |
| CC(C)C(=O)OC1C(c2ccc3c(N)ncnn23)OC(C#N)(COP(=O)(NC(C)C(=O)OC2CCN(C)C2)Oc2ccccc2)C1OC(=O)C(C)C (single isomer, unassigned) [Example 229] |  |  |  | 16 nM | 23 nM | 676 nM |  |  |  |
| CCC(CC)COC(=O)[C@H](C)NP(=O)(O)OC[C@@]1(C#N)O[C@@H](c2ccc3c(N)ncnn23)[C@H](OC(=O)C(C)C)[C@@H]1OC(=O)C(C)C [Example 239, ((2R,3S,4S,5S)-5-(4-aminopyrrolo[2,1-f][1,2,4]triazin-7-yl)-2-cyano-3,4-bis(isobutyryloxy)tetrahydrofuran-2-yl)methyl ((S)-1-(2-ethylbutoxy)-1-oxopropan-2-yl)phosphoramidate] | > 9830 nM | 2260 nM | > 50000 nM |  |  |  |  |  |  |
| CC(C)[C@H](N)C(=O)O[C@H]1[C@H](c2ccc3c(N)ncnn23)O[C@](C#N)(COP(=O)(N[C@@H](C)C(=O)OC2CCOCC2)Oc2ccccc2)[C@H]1OC(=O)[C@@H](N)C(C)C (stereo partly drawn) [Example 221, (2R,3S,4S,5S)-5-(4-aminopyrrolo[2,1-f][1,2,4]triazin-7-yl)-2-cyano-2-((((((S)-1-oxo-1-((tetrahydro-2H-pyran-4-yl)oxy)propan-2-yl)amino)(phenoxy)phosphoryl)oxy)methyl)tetrahydrofuran-3,4-diyl (2S,2'S)-bis(2-amino-3-methylbutanoate)] |  |  |  | 660 nM | 1170 nM | 8990 nM |  |  |  |
| C[C@H](NP(=O)(OC[C@@]1(C#N)O[C@@H](c2ccc3c(N)ncnn23)[C@H](O)[C@@H]1O)Oc1ccccc1)C(=O)O[C@H]1CCN(C)C1 (stereo partly drawn) [Example 15, (S)-1-methylpyrrolidin-3-yl ((((2R,3S,4R,5S)-5-(4-aminopyrrolo[2,1-f][1,2,4]triazin-7-yl)-2-cyano-3,4-dihydroxytetrahydrofuran-2-yl)methoxy)(phenoxy)phosphoryl)-L-alaninate] |  |  |  |  |  |  | 4330 nM | 3260 nM | 11400 nM |
| COC(=O)[C@H](C)NP(=O)(OC[C@@]1(C#N)O[C@@H](c2ccc3c(N)ncnn23)[C@H](OC(=O)C(C)C)[C@@H]1OC(=O)C(C)C)Oc1ccc(C[C@H](N)C(=O)OC)cc1 (stereo partly drawn) [Example 235, (2R,3S,4S,5S)-2-((((4-((S)-2-amino-3-methoxy-3-oxopropyl)phenoxy)(((S)-1-methoxy-1-oxopropan-2-yl)amino)phosphoryl)oxy)methyl)-5-(4-aminopyrrolo[2,1-f][1,2,4]triazin-7-yl)-2-cyanotetrahydrofuran-3,4-diyl bis(2-methylpropanoate)] | 742 nM | 113 nM | 2260 nM |  |  |  |  |  |  |
| CC(C)C(=O)O[C@H]1[C@H](c2ccc3c(N)ncnn23)O[C@](C#N)(COP(=O)(N[C@@H](C)C(=O)O[C@@H]2CCOC2)Oc2ccccc2)[C@H]1OC(=O)C(C)C (single isomer, unassigned) [Example 243] |  | 11 nM |  | 15 nM |  |  |  |  |  |
